The results in this text go back to patent US20240148821A1, “PHARMACEUTICAL USE OF CYCLIC PEPTIDE COMPOUND” (CHUGAI SEIYAKU KABUSHIKI KAISHA, priority 2021, published 2024).

Numbered stars: 1 amine (or outer) side, 2 acyl side, 3 side chain; on linkers, the order of the positions; unused ones are H or OH. Bridge positions count the residues as written; N and C are the ends. Square brackets hold non-standard residues; d marks the D form. Peptide text beside a SMILES is read from it. * marks the point of attachment. hPhe(3-Cl-4-CF3) = N[C@@H](CCc1ccc(C(F)(F)F)c(Cl)c1)C(=O)O; NMePhe(4-CF3) = CN[C@@H](Cc1ccc(C(F)(F)F)cc1)C(=O)O; hPhe(4-CF3) = N[C@@H](CCc1ccc(C(F)(F)F)cc1)C(=O)O; NMePhe(4-Cl) = CN[C@@H](Cc1ccc(Cl)cc1)C(=O)O; X11 = O=C([C@H](CCc1ccc2occc2c1)N[*:1])[*:2]; NMePhe(4-Me) = CN[C@@H](Cc1ccc(C)cc1)C(=O)O; NMedβ3hAla = C[C@H](CC(=O)[*:2])N(C)[*:1]; NMeGly(cPent) = CN[C@H](C(=O)O)C1CCCC1; dβ3hPip = O=C(C[C@H]1CCCCN1[*:1])[*:2]; NMeGly(cBu) = CN[C@H](C(=O)O)C1CCC1; Gly(cPent) = N[C@H](C(=O)O)C1CCCC1; NMeCha = CN[C@@H](CC1CCCCC1)C(=O)O; Hyp = O=C(O)[C@@H]1C[C@@H](O)CN1; NMeChg = CN[C@H](C(=O)O)C1CCCCC1; NMeF = CN[C@@H](Cc1ccccc1)C(=O)O; NMeD = CN[C@@H](CC(=O)O)C(=O)O; NMeL = CN[C@@H](CC(C)C)C(=O)O; NMeV = CN[C@H](C(=O)O)C(C)C; d(β3hA) = C[C@@H](N)CC(=O)O; NPhGly = O=C(O)CNc1ccccc1; NMeA = CN[C@@H](C)C(=O)O; NMeAib = CNC(C)(C)C(=O)O; Piperidide = C1CCN(*)CC1; Ac5c = NC1(C(=O)O)CCCC1; Aze = O=C(O)[C@@H]1CCN1; X9 = c1cncc(C*)c1; Sar = CNCC(=O)O

This assay addresses protein-protein interaction between Kras and SOS1 (biotin-tagged human Kras loaded with GDP, His-tagged human SOS1) (Homo sapiens (Human), UniProt P01116, G12D). The assay is described as follows: Protein-protein interaction inhibition between Kras and SOS1 (KrasG12D-SOS PPI) using AlphaScreen.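 Note: kras produced in E. coli, Ni-coupled donor beads and streptavidin acceptor beads, excitation 680 nm with emission detected at 520–620 nm via singlet oxygen transfer.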 The class given is biochemical. The following applies: AlphaScreen; biotin-tagged human Kras loaded with GDP, His-tagged human SOS1; read-out: KRAS G12D-SOS PPI IC50.
With `CCO[C@@H]1C[C@H]2C(=O)NC3(CCCC3)C(=O)N(C)[C@@H](C3CCCC3)C(=O)N(C)[C@H](C)CC(=O)N(C)[C@@H](CC(C)C)C(=O)N[C@@H]([C@@H](C)CC)C(=O)N(C)CC(=O)N(C)CC(=O)N(C)[C@@H](CC3CCCCC3)C(=O)N(C)CC(=O)N[C@@H](CCc3ccc(C(F)(F)F)c(Cl)c3)C(=O)N2C1` [Compound 510] (cyclo([Ac5c][NMeGly(cPent)][NMedβ3hAla][NMeL]I[Sar][Sar][NMeCha][Sar][hPhe(3-Cl-4-CF3)][Hyp](Et))), the half-inhibitory concentration (IC50) was 4 nM. For `CC[C@H](C)[C@@H]1NC(=O)[C@H](CC(C)C)N(C)C(=O)C[C@@H](C(=O)N2CCCCC2)N(C)C(=O)[C@H](C(C)C)N(C)C(=O)C2(CCCC2)NC(=O)[C@@H]2CCCN2C(=O)[C@H](CCc2ccc(C(F)(F)F)c(Cl)c2)NC(=O)CN(C)C(=O)[C@H](CC2CCCCC2)N(C)C(=O)[C@@H]2CCN2C(=O)[C@H](C2CCC2)N(C)C1=O` [Compound 1554] ([NMeL]I[NMeGly(cBu)][Aze][NMeCha][Sar][hPhe(3-Cl-4-CF3)]P[Ac5c][NMeV][NMeD]-Piperidide; lactam N-11), the IC50 came out at 200 nM. Consider `CC[C@H](C)[C@@H]1NC(=O)[C@H](CC(C)C)N(C)C(=O)C[C@@H](C(=O)N2CCCCC2)N(C)C(=O)[C@H](C2CCCC2)N(C)C(=O)C2(CCCC2)NC(=O)[C@@H]2CCCN2C(=O)[C@H](CCc2ccc3occc3c2)NC(=O)CN(C)C(=O)[C@H](CC2CCCCC2)N(C)C(=O)[C@@H]2CCN2C(=O)[C@H](C)N(C)C1=O` [Compound 2063] ([NMeL]I[NMeA][Aze][NMeCha][Sar][X11]P[Ac5c][NMeGly(cPent)][NMeD]-Piperidide; lactam N-11 (inferred); C-terminus assumed), for which the IC50 stood at 8.8 nM.

Take `CC[C@H](C)[C@@H]1NC(=O)[C@H](C)N(C)C(=O)C[C@@H](C)N(C)C(=O)[C@H](CC(C)C)NC(=O)[C@H](Cc2ccccc2)N(C)C(=O)[C@H](CC(C)C)NC(=O)[C@H](CCc2ccc(C(F)(F)F)cc2)NC(=O)CN(C)C(=O)[C@H](Cc2ccc(Cl)cc2)N(C)C(=O)CN(C)C(=O)CN(C)C1=O` [Compound 214] (cyclo(I[Sar][Sar][NMePhe(4-Cl)][Sar][hPhe(4-CF3)]L[NMeF]L[NMedβ3hAla][NMeA])): the concentration for half-maximal inhibition (IC50) turned out to be 280 nM.

Take `CC[C@H](C)[C@@H]1NC(=O)[C@H](C)N(C)C(=O)C[C@@H](C)N(C)C(=O)[C@H](C2CCC2)N(C)C(=O)C(C)(C)N(C)C(=O)CN(c2ccccc2)C(=O)[C@H](CCc2ccc(C(F)(F)F)c(Cl)c2)NC(=O)CN(C)C(=O)[C@H](C2CCC2)N(C)C(=O)[C@@H]2CCN2C(=O)[C@H](C)N(C)C1=O` [Compound 2148] (cyclo([Aze][NMeGly(cBu)][Sar][hPhe(3-Cl-4-CF3)][NPhGly][NMeAib][NMeGly(cBu)][NMedβ3hAla][NMeA]I[NMeA])): the IC50 came out at 63 nM.

As for `CC[C@H](C)[C@@H]1NC(=O)[C@H](C)N(C)C(=O)C[C@H]2CCCCN2C(=O)[C@H](C(C)C)N(C)C(=O)[C@H](Cc2ccccc2)N(C)C(=O)[C@H](CC(C)C)N(C)C(=O)[C@H](CCc2ccc(C(F)(F)F)cc2)NC(=O)CN(C)C(=O)[C@H](Cc2ccc(Cl)cc2)N(C)C(=O)CN(C)C(=O)CN(C)C1=O` [Compound 512] (cyclo(I[Sar][Sar][NMePhe(4-Cl)][Sar][hPhe(4-CF3)][NMeL][NMeF][NMeV][dβ3hPip][NMeA])), the IC50 turned out to be 150 nM.

Take `CC[C@H](C)[C@@H]1NC(=O)[C@H](CC(C)C)N(C)C(=O)C[C@@H](C)NC(=O)[C@H](C2CCCC2)NC(=O)C2(CCCC2)NC(=O)[C@@H]2CCCN2C(=O)[C@H](CCc2ccc(C(F)(F)F)c(Cl)c2)NC(=O)CN(C)C(=O)[C@H](Cc2ccc(C)cc2)N(C)C(=O)[C@@H]2CCN2C(=O)[C@H](C)N(C)C1=O` [Compound 1213] (cyclo([Ac5c][Gly(cPent)][d(β3hA)][NMeL]I[NMeA][Aze][NMePhe(4-Me)][Sar][hPhe(3-Cl-4-CF3)]P)): the IC50 amounted to 17 nM. Then `CC[C@H](C)[C@@H]1NC(=O)[C@H](CC(C)C)N(C)C(=O)C[C@@H](C(=O)N2CCCCC2)N(C)C(=O)[C@H](C2CCCCC2)N(C)C(=O)C2(CCCC2)NC(=O)[C@@H]2C[C@@H](OCc3cccnc3)CN2C(=O)[C@H](CCc2ccc(C(F)(F)F)c(Cl)c2)NC(=O)CN(C)C(=O)[C@H](CC2CCCCC2)N(C)C(=O)CN(C)C(=O)CN(C)C1=O` [Compound 2121] ([NMeL]I[Sar][Sar][NMeCha][Sar][hPhe(3-Cl-4-CF3)][Hyp](X9)[Ac5c][NMeChg][NMeD]-Piperidide; lactam N-11), with 0.56 nM. `CCO[C@@H]1C[C@H]2C(=O)NC3(CCCC3)C(=O)N(C)[C@@H](C3CCCCC3)C(=O)N(C)[C@H](C)CC(=O)N(C)[C@@H](CC(C)C)C(=O)N[C@@H]([C@@H](C)CC)C(=O)N(C)[C@@H](C)C(=O)N3CC[C@H]3C(=O)N(C)[C@@H](Cc3ccc(C(F)(F)F)cc3)C(=O)N(C)CC(=O)N[C@@H](CCc3ccc(C(F)(F)F)c(Cl)c3)C(=O)N2C1` [Compound 652] (cyclo([Ac5c][NMeChg][NMedβ3hAla][NMeL]I[NMeA][Aze][NMePhe(4-CF3)][Sar][hPhe(3-Cl-4-CF3)][Hyp](Et))): the half-maximal inhibitory concentration (IC50) stood at 4.3 nM.
